Among the data in patent publication US20150198597A1, “Method for monitoring PARP activity in cells by PARP activation” (Stichting Het Nederlands Kanker Instituut, priority 2012, published 2015) are PAR levels values, retold here.

In the experiment the test system is PARP. The settings on record: PBMCs; H2O2 at 0, 12.5, 50, 200 and 800 μM; treated and maintained on ice (0-4° Celsius) for 60 minutes; FIG. 3B.

Experimental: Cells were treated on ice (at 0-4° Celsius) and cells were maintained on ice (at 0-4° Celsius) for 60 minutes. Cells were immediately lysed thereafter and PAR levels were measured by using the Trevigen® PARP Pharmacodynamic assay II. The PAR levels (y-axis) are plotted against the H2O2 concentration (x-axis).
The assay was used to quantify the amount of PAR in peripheral blood mononuclear cells (PBMC).
Peripheral Blood Mononuclear Cells (PBMCs) were prepared by drawing 8 ml blood from a subject in a BD vacutainer CPT-citrate tube (RT) at the clinic. Invert the tubes three times to mix the anti-coagulant (1 ml) with the blood and keep the tube at room temperature (RT). Centrifuge for 25 minutes at 1500×g at RT, and invert the tubes three times. Pour the upper layer into a 50 ml Falcon tube on ice and incubate on ice for 5 minutes. Adjust the total volume to 50 ml with ice-cold PBS and centrifuge 10 minutes at 330×g at 4° Celsius. Decant the supernatant and place the tube inverted on filter paper for 2 seconds. Re-suspend the pellet in 10 ml ice-cold PBS. Count the PBMCs with a hema-cytometer and centrifuge 10 minutes at 330×g at 4° Celsius. Re-suspend the pellet at 2×10exp6 PBMC/500 μl in PBS and transfer to a pre-chilled 2.0 ml tube on ice.
For example, cells are suspended at 2×10E6 PBMC/500 μl culture PBS. […]

Consider `OO` [H2O2, hydrogen peroxide], for which the PAR levels entry is given as “Higher PAR levels were found with increasing H2O2 treatment concentration”.
